Data reported in ChEMBL document CHEMBL3813627, “Preventive effect of a novel diosgenin derivative on arterial and venous thrombosis in vivo” (Bioorg Med Chem Lett, 2016).
Active and inactive are the calls of the source. The calls are words filed in the database; no cut-off is given here.

Experiments:
Mus musculus [1] = experiment: Toxicity in Balb/c mouse assessed as white blood cell count at 28.8 mg/kg, ig bid for 7 days (reference value: 7.7 +/- 0.65 10^9/L); assay type: organism-based; conditions: in vivo, po, 168 h
Mus musculus [2] = experiment: Toxicity in Balb/c mouse assessed as hemoglobin count at 28.8 mg/kg, ig bid for 7 days (reference value: 143 +/- 11.9 g/L); assay type: organism-based; conditions: in vivo, po, 168 h
Mus musculus [3] = experiment: Toxicity in Balb/c mouse assessed as hematocrit at 28.8 mg/kg, ig bid for 7 days (reference value: 40.5 +/- 3.5 %); assay type: organism-based; conditions: in vivo, po, 168 h
Rattus norvegicus [4] = species on record: Rattus norvegicus; experiment: Gastric toxicity in Sprague-Dawley rat assessed as gastric mucosal damage score treated for 49 days by hematoxylin and eosin staining based microscopic analysis; assay type: organism-based, Gastric mucosa; conditions: in vivo, 1176 h
Rattus norvegicus [5] = species on record: Rattus norvegicus; experiment: Gastric toxicity in Sprague-Dawley rat assessed as angiogenesis treated for 49 days by hematoxylin and eosin staining based microscopic analysis; assay type: organism-based; conditions: in vivo, 1176 h
Rattus norvegicus [6] = species on record: Rattus norvegicus; experiment: Gastric toxicity in Sprague-Dawley rat assessed as fibrotic changes treated for 49 days by hematoxylin and eosin staining based microscopic analysis; assay type: organism-based; conditions: in vivo, 1176 h
Rattus norvegicus [7] = experiment: Anticoagulant activity in platelet-rich plasma isolated from Sprague-Dawley rat assessed as activated partial thromboplastin time at 20 mg/kg, ig bid for 7 days (reference value: 17.6 +/- 0.92 secs); assay type: functional
Rattus norvegicus [8] = experiment: Antiplatelet activity in platelet-rich plasma isolated from Sprague-Dawley rat assessed as ADP-induced platelet aggregation at 20 mg/kg, ig bid for 7 days measured for 5 mins by light transmission aggregometry (reference value: 57.57 +/- 2.43 %); assay type: functional
Rattus norvegicus [9] = experiment: Anticoagulant activity in platelet-rich plasma isolated from Sprague-Dawley rat assessed as prothrombin time at 20 mg/kg, ig bid for 7 days (reference value: 11.6 +/- 0.98 secs); assay type: functional
Rattus norvegicus [10] = experiment: Anticoagulant activity in platelet-rich plasma isolated from Sprague-Dawley rat assessed as thrombin time at 20 mg/kg, ig bid for 7 days (reference value: 47.1 +/- 3.1 secs); assay type: functional
Rattus norvegicus [11] = experiment: In vivo activation of coagulation factor8 in Sprague-Dawley rat at 20 mg/kg, ig bid for 7 days by automated coagulometry; assay type: functional, organism-based
Rattus norvegicus [12] = experiment: In vivo activation of coagulation factor9 in Sprague-Dawley rat at 20 mg/kg, ig bid for 7 days by automated coagulometry; assay type: functional, organism-based
Rattus norvegicus [13] = experiment: In vivo activation of coagulation factor10 in Sprague-Dawley rat at 20 mg/kg, ig bid for 7 days by automated coagulometry; assay type: functional, organism-based
Rattus norvegicus [14] = experiment: In vivo activation of coagulation factor11 in Sprague-Dawley rat at 20 mg/kg, ig bid for 7 days by automated coagulometry; assay type: functional, organism-based
Rattus norvegicus [15] = experiment: In vivo activation of coagulation factor12 in Sprague-Dawley rat at 20 mg/kg, ig bid for 7 days by automated coagulometry; assay type: functional, organism-based
Rattus norvegicus [16] = experiment: Anti-thrombotic activity in Sprague-Dawley rat model of FeCl3-induced arterial thrombosis assessed as reduction in arterial thrombus length at 20 mg/kg, ig bid for 7 days by vernier caliper method; assay type: functional, organism-based
Rattus norvegicus [17] = experiment: Anti-thrombotic activity in Sprague-Dawley rat model of FeCl3-induced arterial thrombosis assessed as reduction in arterial thrombus weight at 20 mg/kg, ig bid for 7 days; assay type: functional, organism-based
Rattus norvegicus [18] = experiment: Anti-thrombotic activity in Sprague-Dawley rat model of FeCl3-induced venous thrombosis assessed as reduction in venous thrombus length at 46 mg/kg, ig bid for 7 days by vernier caliper method; assay type: functional, organism-based
Rattus norvegicus [19] = experiment: Anti-thrombotic activity in Sprague-Dawley rat model of FeCl3-induced venous thrombosis assessed as reduction in venous thrombus weight at 46 mg/kg, ig bid for 7 days; assay type: functional, organism-based
Mus musculus [20] = experiment: Toxicity in Balb/c mouse assessed as tail bleeding time at 28.8 mg/kg, ig bid for 7 days (reference value: 186 +/- 12 sec); assay type: organism-based; conditions: in vivo, po
Mus musculus [21] = experiment: Toxicity in Balb/c mouse assessed as red blood cell count at 28.8 mg/kg, ig bid for 7 days (reference value: 7.55 +/- 0.59 10^12/L); assay type: organism-based; conditions: in vivo, po, 168 h
Mus musculus [22] = experiment: Toxicity in Balb/c mouse assessed as platelet count at 28.8 mg/kg, ig bid for 7 days (reference value: 802 +/- 74 10^9/L); assay type: organism-based; conditions: in vivo, po, 168 h
Mus musculus [23] = experiment: Toxicity in Balb/c mouse assessed as white blood cell count at 92.1 mg/kg, ig bid for 7 days (reference value: 7.7 +/- 0.65 10^9/L); assay type: organism-based; conditions: in vivo, po, 168 h
Mus musculus [24] = experiment: Toxicity in Balb/c mouse assessed as hemoglobin count at 92.1 mg/kg, ig bid for 7 days (reference value: 143 +/- 11.9 g/L); assay type: organism-based; conditions: in vivo, po, 168 h
Mus musculus [25] = experiment: Toxicity in Balb/c mouse assessed as hematocrit at 92.1 mg/kg, ig bid for 7 days (reference value: 40.5 +/- 3.5 %); assay type: organism-based; conditions: in vivo, po, 168 h
Mus musculus [26] = experiment: Hepatotoxicity in Balb/c mouse assessed as changes in serum GPT level at 92.1 to 575.5 mg/kg, po administered as single dose for 7 days; assay type: toxicity, organism-based; conditions: in vivo, 168 h
Mus musculus [27] = experiment: Toxicity in Balb/c mouse assessed as mortality at 92.1 to 575.5 mg/kg, po administered as single dose for 7 days; assay type: organism-based; conditions: in vivo, 168 h
Mus musculus [28] = experiment: Hepatotoxicity in Balb/c mouse assessed as changes in serum GOT level at 92.1 to 575.5 mg/kg, po administered as single dose for 7 days; assay type: toxicity, organism-based; conditions: in vivo, 168 h
Mus musculus [29] = experiment: Hepatotoxicity in Balb/c mouse assessed as histopathological changes at 92.1 to 575.5 mg/kg, po administered as single dose for 7 days by hematoxylin and eosin staining based microscopic analysis; assay type: toxicity, organism-based; conditions: in vivo, 168 h
Rattus norvegicus [30] = experiment: Antiplatelet activity in platelet-rich plasma isolated from Sprague-Dawley rat assessed as ADP-induced platelet aggregation at 64 mg/kg, ig bid for 7 days measured for 5 mins by light transmission aggregometry (reference value: 57.57 +/- 2.43 %); assay type: functional
Rattus norvegicus [31] = experiment: Anticoagulant activity in platelet-rich plasma isolated from Sprague-Dawley rat assessed as activated partial thromboplastin time at 64 mg/kg, ig bid for 7 days (reference value: 17.6 +/- 0.92 secs); assay type: functional
Rattus norvegicus [32] = experiment: Antiplatelet activity in platelet-rich plasma isolated from ig dosed Sprague-Dawley rat assessed as inhibition of ADP-induced platelet aggregation administered bid for 7 days measured for 5 mins by light transmission aggregometry; assay type: functional, organism-based
Rattus norvegicus [33] = experiment: Anticoagulant activity in platelet-rich plasma isolated from Sprague-Dawley rat assessed as prothrombin time at 64 mg/kg, ig bid for 7 days (reference value: 11.6 +/- 0.98 secs); assay type: functional
Rattus norvegicus [34] = experiment: Anticoagulant activity in platelet-rich plasma isolated from Sprague-Dawley rat assessed as thrombin time at 64 mg/kg, ig bid for 7 days (reference value: 47.1 +/- 3.1 secs); assay type: functional
Rattus norvegicus [35] = experiment: In vivo activation of coagulation factor8 in Sprague-Dawley rat at 64 mg/kg, ig bid for 7 days by automated coagulometry; assay type: functional, organism-based
Rattus norvegicus [36] = experiment: In vivo activation of coagulation factor9 in Sprague-Dawley rat at 64 mg/kg, ig bid for 7 days by automated coagulometry; assay type: functional, organism-based
Rattus norvegicus [37] = experiment: In vivo activation of coagulation factor10 in Sprague-Dawley rat at 64 mg/kg, ig bid for 7 days by automated coagulometry; assay type: functional, organism-based
Rattus norvegicus [38] = experiment: In vivo activation of coagulation factor11 in Sprague-Dawley rat at 64 mg/kg, ig bid for 7 days by automated coagulometry; assay type: functional, organism-based
Rattus norvegicus [39] = experiment: In vivo activation of coagulation factor12 in Sprague-Dawley rat at 64 mg/kg, ig bid for 7 days by automated coagulometry; assay type: functional, organism-based
Rattus norvegicus [40] = experiment: Anti-thrombotic activity in Sprague-Dawley rat model of FeCl3-induced arterial thrombosis assessed as arterial thrombus length at 64 mg/kg, ig bid for 7 days by vernier caliper method (reference value: 10.5 +/- 0.83 mm); assay type: functional
Rattus norvegicus [41] = experiment: Anti-thrombotic activity in Sprague-Dawley rat model of FeCl3-induced arterial thrombosis assessed as arterial thrombus weight at 64 mg/kg, ig bid for 7 days (reference value: 12.94 +/- 0.7 mg); assay type: functional
Rattus norvegicus [42] = experiment: Anti-thrombotic activity in Sprague-Dawley rat model of FeCl3-induced venous thrombosis assessed as venous thrombus length at 64 mg/kg, ig bid for 7 days by vernier caliper method (reference value: 10.66 +/- 0.81 mm); assay type: functional
Rattus norvegicus [43] = experiment: Anti-thrombotic activity in Sprague-Dawley rat model of FeCl3-induced venous thrombosis assessed as venous thrombus weight at 64 mg/kg, ig bid for 7 days (reference value: 17.1 +/- 0.69 mg); assay type: functional
Mus musculus [44] = experiment: Toxicity in Balb/c mouse assessed as tail bleeding time at 92.1 mg/kg, ig bid for 7 days (reference value: 186 +/- 12 sec); assay type: organism-based; conditions: in vivo, po
Mus musculus [45] = experiment: Toxicity in Balb/c mouse assessed as red blood cell count at 92.1 mg/kg, ig bid for 7 days (reference value: 7.55 +/- 0.59 10^12/L); assay type: organism-based; conditions: in vivo, po, 168 h
Mus musculus [46] = experiment: Toxicity in Balb/c mouse assessed as platelet count at 92.1 mg/kg, ig bid for 7 days (reference value: 802 +/- 74 10^9/L); assay type: organism-based; conditions: in vivo, po, 168 h

With `CC(=O)Oc1ccccc1C(=O)O` [ASPIRIN] the Activity (Mus musculus [1]) was 7.84 ×10⁹ /L, the Activity (Mus musculus [2]) was 150 g/L and the Activity (Mus musculus [3]) was 43.8%. The UI (Rattus norvegicus [4]) was 20.66, the Activity (Rattus norvegicus [5]) was “Toxic” and the Activity (Rattus norvegicus [6]) was “Toxic”. For the same compound, the APTT (Rattus norvegicus [7]) was 18 s, the Activity (Rattus norvegicus [8]) was 28.85% and the PT (Rattus norvegicus [9]) was 10.5 s. The TT (Rattus norvegicus [10]) was 45.3 s, the Activity (Rattus norvegicus [11]) was “inactive” and the Activity (Rattus norvegicus [12]) was “inactive”. The Activity (Rattus norvegicus [13]) was “inactive”, the Activity (Rattus norvegicus [14]) was “inactive” and the Activity (Rattus norvegicus [15]) was “inactive”. The Activity (Rattus norvegicus [16]) was “Active”, the Activity (Rattus norvegicus [17]) was “Active” and the Activity (Rattus norvegicus [18]) was “Active”. For the same compound, the Activity (Rattus norvegicus [19]) was “Active”, the Time (Mus musculus [20]) was greater than 900 s and the Activity (Mus musculus [21]) was 7.62 ×10¹² /L. For the same compound, the Activity (Mus musculus [22]) was 651 ×10⁹ /L.

In the case of `CC(=O)Oc1ccccc1C(=O)O[C@H]1CC[C@@]2(C)C(=CC[C@H]3[C@@H]4C[C@@H]5O[C@]6(CC[C@@H](C)CO6)[C@@H](C)[C@@H]5[C@@]4(C)CC[C@@H]32)C1`, the Activity (Mus musculus [23]) is reported as 7.82 ×10⁹ /L, the Activity (Mus musculus [24]) is reported as 133 g/L and the Activity (Mus musculus [25]) is reported as 38.9%. The Activity (Mus musculus [26]) was “Non-toxic”, the UI (Rattus norvegicus [4]) was 0.66 and the Activity (Rattus norvegicus [5]) was “Non-toxic”. The Activity (Rattus norvegicus [6]) was “Non-toxic”, the Activity (Mus musculus [27]) was “Non-toxic” and the Activity (Mus musculus [28]) was “Non-toxic”. For the same compound, the Activity (Mus musculus [29]) was “Non-toxic”, the Activity (Rattus norvegicus [30]) was 29.42% and the APTT (Rattus norvegicus [31]) was 22.6 s. For the same compound, the inhibition (Rattus norvegicus [32]) was “Dose-dependent effect”, the PT (Rattus norvegicus [33]) was 11.4 s and the TT (Rattus norvegicus [34]) was 46.7 s. For the same compound, the Activity (Rattus norvegicus [35]) was “Active”, the Activity (Rattus norvegicus [36]) was “inactive” and the Activity (Rattus norvegicus [37]) was “inactive”. The Activity (Rattus norvegicus [38]) was “inactive”, the Activity (Rattus norvegicus [39]) was “inactive” and the Activity (Rattus norvegicus [40]) was 5 mm. The Activity (Rattus norvegicus [41]) was 6.34 mg, the Activity (Rattus norvegicus [42]) was 5.83 mm and the Activity (Rattus norvegicus [43]) was 9.12 mg. The Time (Mus musculus [44]) was 676 s, the Activity (Mus musculus [45]) was 7.05 ×10¹² /L and the Activity (Mus musculus [46]) was 790 ×10⁹ /L.
